The values below are quoted from earlier work in patent publication US20240285702A1, “Compositions comprising a cannabinoid and uses thereof” (Cannabotech Ltd., priority 2021, published 2024).

Usually Log P stands for the decadic logarithm of the partition coefficient of the neutral form, usually between octanol and water.

Values after ≈ are worked out from the molar mass of the structure shown.

Take `C=C(C)[C@@H]1CCC(C)=C[C@H]1c1c(O)cc(CCCCC)cc1O` [CBD, 2-[(1R,6R)-6-isopropenyl-3-methylcyclohex-2-en-1-yl]-5-pentylbenzene-1,3-diol]: the “Log P” value is 5.8 and the water solubility is 0.7 µg/mL (≈ 2.23 µM).
